Measurements from US9387238B2, “CDCA1 epitope peptides and vaccines containing the same” (OncoTherapy Science, Inc., priority 2008, dated 2016).

Tests used:
[1] = system: peptide-pulsed A24LCL cells; assay: IFN-gamma ELISPOT assay on CTLs induced with CDCA1 peptides; format: cell-based, human; conditions: CTLs from HLA-A*2402 positive donor vs peptide-pulsed target cells, compared with the control
Source text: Monocyte-derived dendritic cells (DCs) were used as antigen-presenting cells (APCs) to induce cytotoxic T lymphocyte (CTL) responses against peptides presented on human leukocyte antigen (HLA). DCs were generated in vitro as described elsewhere (Nakahara S et al., Cancer Res 2003 Jul. 15, 63(14): 4112-8). Specifically, peripheral blood mononuclear cells (PBMCs) isolated from a normal volunteer (HLA-A*2402 positive) by Ficoll-Plaque (Pharmacia) solution were separated by adherence to a plastic tissue culture dish (Becton Dickinson) so as to enrich them as the monocyte fraction. The monocyte-enriched population was cultured in the presence of 1000 U/ml of granulocyte-macrophage colony-stimulating factor (GM-CSF) (R&D System) and 1000 U/ml of interleukin (IL)-4 (R&D System) in AIM-V Medium (Invitrogen) containing 2% heat-inactivated autologous serum (AS). After 7 days of culture, the cytokine-induced DCs were pulsed with 20 micro g/ml of each of the synthesized peptides in the presence of 3 micro g/ml of beta 2-microglobulin for 3 hr at 37 degrees C. in AIM-V Medium. The generated cells appeared to express DC-associated molecules, such as CD80, CD83, CD86 and HLA class II, on their cell surfaces (data not shown). These peptide-pulsed DCs were then inactivated by Mitomycin C (MMC) (30 micro g/ml for 30 min) and mixed at a 1:20 ratio with autologous CD8+ T cells, obtained by positive selection with CD8 Positive Isolation Kit (Dynal). These cultures were set up in 48-well plates (Corning); each well contained 1.5×10^4 peptide-pulsed DCs, 3×10^5 CD8+ T cells and 10 ng/ml of IL-7 (R&D System) in 0.5 ml of AIM-V/2% AS medium. Three days later, these cultures were supplemented with IL-2 (CHIRON) to a final concentration of 20 IU/ml. On day 7 and 14, the T cells were further stimulated with the autologous peptide-pulsed DCs. The DCs were prepared each time by the same way described above. CTL was tested against peptide-pulsed A24LCL cells after the 3rd round of peptide stimulation on day 21 (Tanaka H et al., Br J Cancer 2001 Jan. 5, 84(1): 94-9; Umano Y et al., Br J Cancer 2001 Apr. 20, 84(8): 1052-7; Uchida N et al., Clin Cancer Res 2004 Dec. 15, 10(24): 8577-86; Suda T et al., Cancer Sci 2006 May, 97(5): 411-9; Watanabe T et al., Cancer Sci 2005 August, 96(8): 498-506).
(§1) To examine specific CTL activity, interferon (IFN)-gamma enzyme-linked immunospot (ELISPOT) assay and IFN-gamma enzyme-linked immunosorbent assay (ELISA) were performed. Specifically, peptide-pulsed A24LCL (1×10^4/well) was prepared as stimulator cells. Cultured cells in 48 wells were used as responder cells. IFN-gamma ELISPOT assay and IFN-gamma ELISA assay were performed under manufacture procedure.

[2] = system: peptide-pulsed A24LCL cells; assay: IFN-gamma ELISA assay on CTL lines established with CDCA1 peptides; format: cell-based, human; conditions: CTL line vs peptide-pulsed target cells, compared with target cells not pulsed
Procedure: CTLs were expanded in culture using the method similar to the one described by Riddell et al. (Walter E A et al., N Engl J Med 1995 Oct. 19, 333(16): 1038-44; Riddell S R et al., Nat Med 1996 February, 2(2): 216-23). A total of 5×10^4 CTLs were suspended in 25 ml of AIM-V/5% AS medium with 2 kinds of human B-lymphoblastoid cell lines, inactivated by MMC, in the presence of 40 ng/ml of anti-CD3 monoclonal antibody (Pharmingen). One day after initiating the cultures, 120 IU/ml of IL-2 were added to the cultures. The cultures were fed with fresh AIM-V/5% AS medium containing 30 IU/ml of IL-2 on days 5, 8 and 11 (Tanaka H et al., Br J Cancer 2001 Jan. 5, 84(1): 94-9; Umano Y et al., Br J Cancer 2001 Apr. 20, 84(8): 1052-7; Uchida N et al., Clin Cancer Res 2004 Dec. 15, 10(24): 8577-86; Suda T et al., Cancer Sci 2006 May, 97(5): 411-9; Watanabe T et al., Cancer Sci 2005 August, 96(8): 498-506).
as §1

[3] = system: target cells pulsed with peptide; assay: IFN-gamma ELISA assay on CTL clone established by limiting dilution; format: cell-based, human; conditions: CTL clone by limiting dilution vs peptide-pulsed target cells, compared with the control
Procedure: The dilutions were made to have 0.3, 1, and 3 CTLs/well in 96 round-bottomed micro titer plate (Nalge Nunc International). CTLs were cultured with 1×10^4 cells/well of 2 kinds of human B-lymphoblastoid cell lines, 30 ng/ml of anti-CD3 antibody, and 125 U/ml of IL-2 in a total of 150 micro 1/well of AIM-V Medium containing 5% AS. 50 micro 1/well of IL-2 were added to the medium 10 days later so to reach a final concentration of 125 U/ml IL-2. CTL activity was tested on the 14th day, and CTL clones were expanded using the same method as described above (Uchida N et al., Clin Cancer Res 2004 Dec. 15, 10(24): 8577-86; Suda T et al., Cancer Sci 2006 May, 97(5): 411-9; Watanabe T et al., Cancer Sci 2005 August, 96(8): 498-506).
as §1

[4] = system: COS7 cells transfected with CDCA1 and HLA-A*2402; assay: Specific CTL activity against target cells exogenously expressing CDCA1 and HLA-A*2402; format: cell-based
Source text: The cDNA encoding an open reading frame of target genes or HLA-A24 was amplified by PCR. The PCR-amplified product was cloned into pCAGGS vector. The plasmids were transfected into COS7, which is the target genes and HLA-A24-null cell line, using lipofectamine 2000 (Invitrogen) according to the manufacturer's recommended procedures. After 2 days from transfection, the transfected cells were harvested with versene (Invitrogen) and used as the target cells (5×10^4 cells/well) for CTL activity assay.
The established CTL lines raised against these peptides were examined for their ability to recognize target cells that exogenously express CDCA1 and HLA-A*2402 molecule. Specific CTL activity against COS7 cells which transfected with both the full length of CDCA1 and HLA-A*2402 molecule gene (a specific model for the target cells that exogenously express CDCA1 and HLA-A*2402 gene) was tested using the CTL lines raised by corresponding peptide as the effecter cells. COS7 cells transfected with either full length of CDCA1 genes or HLA-A*2402 were prepared as control.

Sequence	IFN-gamma production of induced CTLs (ELISPOT) [1]	IFN-gamma production of CTL line (ELISA) [2]	IFN-gamma production of CTL clone (ELISA) [3]	specific CTL activity ([4]; CTL clone vs COS7 cells transfected with both CDCA1 and HLA-A*2402)	specific CTL activity ([4]; CTL clone vs target cells expressing either HLA-A*2402 or CDCA1 (controls))
IYMRALQIVY [SEQ ID NO: 11, 10-mer peptide derived from CDCA1, start position 48]	potent IFN-gamma production	potent IFN-gamma production	–	–	–
KTEENSFKRL [SEQ ID NO: 4, 10-mer peptide derived from CDCA1, start position 335]	potent IFN-gamma production	potent IFN-gamma production	–	–	–
MYPHLMEGFL [SEQ ID NO: 2, 10-mer peptide derived from CDCA1, start position 74]	no specific IFN-gamma production	no specific IFN-gamma production	–	–	–
RFLSGIINFI [SEQ ID NO: 3, 10-mer peptide derived from CDCA1, start position 119]	potent IFN-gamma production	potent IFN-gamma production	–	–	–
RYNVAEIVI [SEQ ID NO: 22, 9-mer peptide derived from CDCA1, start position 8]	potent IFN-gamma production	potent IFN-gamma production	–	–	–
SFPRYNVAEI [SEQ ID NO: 14, 10-mer peptide derived from CDCA1, start position 5]	potent IFN-gamma production	potent IFN-gamma production	–	–	–
VYGIRLEHF [SEQ ID NO: 23, 9-mer peptide derived from CDCA1, start position 56]	potent IFN-gamma production	potent IFN-gamma production	potent IFN-gamma production	high specific CTL activity	no significant specific CTL activity
